This note sets out measurements from US10125150B2, “Crystalline forms of a PI3K inhibitor” (Incyte Corporation, priority 2015, dated 2018).

Molecules are shown by their SMILES.

The nature of series [1]: Dynamic Vapor Sorption (DVS), moisture adsorption/desorption. It counts as physicochemical. As to conditions: 25° C. The protocol:
Dynamic Vapor Sorption (DVS) was performed in an SGA-100 Symmetric Vapor Sorption Analyzer from VTI Corporation. The moisture uptake profile was completed in three cycles in 10% RH increments with the first adsorption from 25% to 95% RH, followed by desorption in 10% increments from 95% to 5% RH. The equilibration criteria were 0.0050 wt % in 5 minutes with a maximum equilibration time of 180 minutes. All adsorption and desorption were performed at room temperature (25° C.). No pre-drying step was applied for the sample.
Moisture adsorption/desorption of Form I was analyzed by DVS. […] The shapes of the isotherms indicate weak adsorbent-adsorbate interaction and a low moisture uptake at low vapor concentration.

Series [2] is described as follows: Competitive slurry experiments (stability of the crystalline forms), solid characterized by XRPD. The format is physicochemical. To be noted: 50° C. How it is done: Forms I and X of the compound of Formula I were slurried together in a methanol-ethyl acetate (1:10) solvent system and heated at 50° C. for 5 days. Specifically, 5 mL of ethyl acetate and 0.5 mL of methanol were combined and heated to 50° C. Form I (from Example 1) was added to the solvent mixture until a cloudy solution formed (about 156 mg), and then additional Form I was added (about 50 mg). Then 50 mg of Form X (prepared as described in Example 12) was added. The mixture was stirred at 50° C. for 5 days and the solid was characterized and monitored by XRPD.
Forms I to XIII of the compound of Formula I were slurried together in a methanol-ethyl acetate (1:10) solvent system at room temperature for 8 days. Specifically, 10 mg of Form I (from Example 1) was added to 1 mL of ethyl acetate with stirring. Then 0.1 mL of methanol was added giving a cloudy solution to which 3 mg of additional Form I (from Example 1) was added. […]
Forms I and X of the compound of Formula I were slurried together in acetone and heated at 50° C. overnight. […] The mixture was stirred at 50° C. overnight and the solid was characterized and monitored by XRPD.
Forms I to XIII of the compound of Formula I were slurried together in acetone at room temperature for 11 days. […] The mixture was stirred at room temperature for 11 days and the resulting solid was characterized and monitored by XRPD.

Turning to `Cc1csc2nc([C@H](C)Nc3ncnc4[nH]cnc34)c(-c3cccc(F)c3)c(=O)n12` [Form I, (S)-7-(1-(9H-purin-6-ylamino)ethyl)-6-(3-fluorophenyl)-3-methyl-5H-thiazolo[3,2-a]pyrimidin-5-one], the “initial water content (DVS)” value in series [1] (no pre-drying) was “about 0.3%”. For the same compound, the “water adsorption (DVS)” value in series [1] (at 85% RH) is recorded as 1.8%. Besides, the resulting crystalline form in series [2] (Forms I and X slurried in acetone, overnight) is “predominantly Form X”; in series [2] (Forms I and X slurried in methanol-ethyl acetate (1:10), 5 days), “predominantly Form I”.
